Data published in patent publication EP4759815A1, “FUSED TRICYCLIC COMPOUND, PHARMACEUTICAL COMPOSITION THEREOF, AND USE THEREOF” (Haihe Biopharma Co., Ltd., priority 2023, dated 2025).
Read-outs that look alike come from different tables or passages of the source.

Columns and labels:
PDE3A = target: T1, PDE3A (Homo sapiens, UniProt Q14432); assay: PDE3A enzyme activity test (IMAP FP); type: biochemical; conditions: PDE3A protein 0.2 nM, FAM-cAMP 200 nM, 60 minutes at rt; off-target safety
T1 construct: purchased ICE G13020203013
T1 sequence (Q14432 whole entry, species assumed): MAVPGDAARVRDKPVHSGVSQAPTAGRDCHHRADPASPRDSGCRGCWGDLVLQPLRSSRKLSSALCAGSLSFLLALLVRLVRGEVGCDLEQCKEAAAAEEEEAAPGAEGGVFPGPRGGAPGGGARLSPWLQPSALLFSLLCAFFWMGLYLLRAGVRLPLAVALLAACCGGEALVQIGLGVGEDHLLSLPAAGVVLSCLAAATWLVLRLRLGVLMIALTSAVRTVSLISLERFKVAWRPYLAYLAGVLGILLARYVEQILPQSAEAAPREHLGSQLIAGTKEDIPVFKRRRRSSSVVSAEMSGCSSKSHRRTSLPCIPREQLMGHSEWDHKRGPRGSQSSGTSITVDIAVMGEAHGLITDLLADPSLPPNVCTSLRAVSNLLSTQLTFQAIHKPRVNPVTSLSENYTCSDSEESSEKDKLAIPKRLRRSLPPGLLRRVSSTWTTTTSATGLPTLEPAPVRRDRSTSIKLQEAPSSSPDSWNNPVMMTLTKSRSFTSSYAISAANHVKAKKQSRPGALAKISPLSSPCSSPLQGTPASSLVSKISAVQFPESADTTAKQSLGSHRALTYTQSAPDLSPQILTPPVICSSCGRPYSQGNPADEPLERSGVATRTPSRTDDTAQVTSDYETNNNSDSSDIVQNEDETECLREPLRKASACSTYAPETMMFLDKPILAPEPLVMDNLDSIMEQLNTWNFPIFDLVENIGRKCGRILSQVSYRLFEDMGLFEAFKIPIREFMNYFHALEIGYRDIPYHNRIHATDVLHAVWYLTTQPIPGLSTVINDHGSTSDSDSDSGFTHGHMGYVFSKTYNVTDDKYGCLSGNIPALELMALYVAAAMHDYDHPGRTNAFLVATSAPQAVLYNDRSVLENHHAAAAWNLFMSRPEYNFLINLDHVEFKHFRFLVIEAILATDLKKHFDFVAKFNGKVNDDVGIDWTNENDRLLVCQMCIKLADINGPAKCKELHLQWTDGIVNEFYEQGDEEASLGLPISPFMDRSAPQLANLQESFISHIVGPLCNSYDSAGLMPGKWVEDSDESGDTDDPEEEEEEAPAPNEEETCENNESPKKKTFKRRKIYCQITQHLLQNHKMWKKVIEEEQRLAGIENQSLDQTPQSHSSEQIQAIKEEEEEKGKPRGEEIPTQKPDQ

[1] = target: Recombinant human PARP1 protein (Homo sapiens, UniProt P09874); assay: PARP1 inhibitory activity (histone substrate, chemiluminescent ELISA); type: biochemical; conditions: for PARP1/2 Fold selectivity: ratio of PARP2 IC50 to PARP1 IC50
Chain of Recombinant human PARP1 protein (P09874 whole entry): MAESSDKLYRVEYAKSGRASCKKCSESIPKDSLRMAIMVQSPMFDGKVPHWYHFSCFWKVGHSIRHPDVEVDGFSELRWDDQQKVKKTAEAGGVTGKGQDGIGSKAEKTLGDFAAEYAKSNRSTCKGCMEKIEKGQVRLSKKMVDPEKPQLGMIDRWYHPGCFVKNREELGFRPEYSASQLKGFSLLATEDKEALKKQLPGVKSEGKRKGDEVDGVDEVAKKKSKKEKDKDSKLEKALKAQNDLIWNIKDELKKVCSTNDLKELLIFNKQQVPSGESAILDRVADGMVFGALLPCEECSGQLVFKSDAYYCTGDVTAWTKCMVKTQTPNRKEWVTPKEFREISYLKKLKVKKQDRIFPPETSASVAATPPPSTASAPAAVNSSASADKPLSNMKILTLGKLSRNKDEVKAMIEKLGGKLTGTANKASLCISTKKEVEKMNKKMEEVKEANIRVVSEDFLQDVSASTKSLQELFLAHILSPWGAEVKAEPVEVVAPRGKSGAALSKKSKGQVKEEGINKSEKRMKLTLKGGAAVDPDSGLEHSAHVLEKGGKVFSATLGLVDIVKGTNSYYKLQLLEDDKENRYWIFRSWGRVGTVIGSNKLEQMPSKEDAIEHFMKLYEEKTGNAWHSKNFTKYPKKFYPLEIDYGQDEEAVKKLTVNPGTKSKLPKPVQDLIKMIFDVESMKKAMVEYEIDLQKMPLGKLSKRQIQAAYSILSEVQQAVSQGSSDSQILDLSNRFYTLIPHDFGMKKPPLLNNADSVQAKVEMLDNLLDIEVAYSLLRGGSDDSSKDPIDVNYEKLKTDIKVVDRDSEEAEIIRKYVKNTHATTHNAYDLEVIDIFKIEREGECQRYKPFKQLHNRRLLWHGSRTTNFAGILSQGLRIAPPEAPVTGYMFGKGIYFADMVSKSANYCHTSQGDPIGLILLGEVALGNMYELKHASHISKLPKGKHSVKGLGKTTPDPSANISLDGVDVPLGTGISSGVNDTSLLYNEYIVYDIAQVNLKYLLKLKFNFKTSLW

MDA-MB-436 cells = assay: MDA-MB-436 cell proliferation inhibition test (CellTiter-Glo, 7 days); type: cell-based; conditions: Homo sapiens, MDA-MB-436, 168 h, 7 days incubation
[2] = target: T2, recombinant human PARP2 protein (Homo sapiens, UniProt Q9UGN5); assay: PARP2 inhibitory activity (histone substrate, chemiluminescent ELISA); type: biochemical
T2 construct: purchased BPS 80502
T2 sequence (Q9UGN5 whole entry): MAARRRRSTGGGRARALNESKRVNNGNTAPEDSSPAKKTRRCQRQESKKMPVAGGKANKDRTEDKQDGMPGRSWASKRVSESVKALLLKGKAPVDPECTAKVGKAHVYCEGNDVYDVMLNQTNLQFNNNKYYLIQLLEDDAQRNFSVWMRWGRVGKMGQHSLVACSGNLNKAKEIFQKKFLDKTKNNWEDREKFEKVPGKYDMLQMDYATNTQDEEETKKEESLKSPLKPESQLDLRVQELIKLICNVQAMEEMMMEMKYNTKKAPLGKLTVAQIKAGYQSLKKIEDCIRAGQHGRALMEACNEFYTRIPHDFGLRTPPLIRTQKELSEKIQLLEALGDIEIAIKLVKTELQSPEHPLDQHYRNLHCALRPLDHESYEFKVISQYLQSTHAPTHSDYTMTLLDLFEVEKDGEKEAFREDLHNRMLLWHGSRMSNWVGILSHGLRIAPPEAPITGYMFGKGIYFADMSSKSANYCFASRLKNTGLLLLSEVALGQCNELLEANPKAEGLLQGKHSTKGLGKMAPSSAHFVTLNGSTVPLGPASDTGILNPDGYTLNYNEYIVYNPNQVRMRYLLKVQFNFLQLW

[3] = Preliminary pharmacokinetic tests in mice; type: in vivo; conditions: male, ICR
[4] = histone substrate, 500 µM NAD+ added to the substrate solution, read-out: PARP1 IC50
[5] = histone substrate, read-out: PARP2 IC50

Row | SMILES | IC50 [1, 4] [nM] | PARP1/2 Fold selectivity [1] | IC50 (MDA-MB-436 cells) [nM] | IC50 [2, 5] [nM] | other results
1 | CNC(=O)c1ccc(N2CCN(Cc3cc4c5c(c3)ncn5[C@H](C3CC3)C(=O)N4)CC2)c(C)n1 [Compound 49-2] | 1.53 | 281.5 | 18 | 431 | IC50 (PDE3A): > 10000 nM
2 | CNC(=O)c1ccc(N2CCN(Cc3cc4c5c(c3)ncn5[C@H](C3CC3)C(=O)N4)CC2)c(Cl)n1 [Compound 47-2] | 1.21 | 232.5 | 16.7 | 281 | IC50 (PDE3A): > 10000 nM
3 | CNC(=O)c1ccc(N2CCN(Cc3cc4c5c(cnn5C(C)C(=O)N4)c3)CC2)c(Cl)n1 (centres unmarked) [Compound 6] | – | – | – | – | AUC(0-t) ([3]; iv, mouse plasma, i.v.(1mg/kg)): 5030 ng·h/mL; clearance ([3]; iv, mouse plasma, i.v.(1mg/kg)): 3.3 mL/min/kg; half-life ([3]; iv, mouse plasma, i.v.(1mg/kg)): 1.3 h; bioavailability ([3]; plasma, oral, mouse, p.o.(5mg/kg) versus i.v.(1mg/kg)): 117%; AUC(0-t) ([3]; po, mouse plasma, p.o.(5mg/kg)): 28700 ng·h/mL; half-life ([3]; po, mouse plasma, p.o.(5mg/kg)): 2.7 h
4 | CC[C@@H]1C(=O)Nc2cc(CN3CCN(c4ccc(C(=O)NC)nc4F)CC3)cc3cnn1c23 [Compound 5-2] | 1.03 | – | 14.8 | – | IC50 (PDE3A): > 10000 nM
5 | CCN1C(=O)Nc2cc(CN3CCN(c4ccc(C(=O)NC)nc4F)CC3)cc3c2c1nn3C [Compound B1, 5-(4-((3-ethyl-1-methyl-4-oxo-1,3,4,5-tetrahydropyrazolo[3,4,5-d]quinazolin-7-yl)methyl)piperazine-1-yl)-6-fluoro-N-methylpicolinamide, reference compound] | – | 2.64 | – | – | IC50 [1]: 1.4 nM; IC50 [2]: 3.7 nM
6 | CNC(=O)c1ccc(N2CCN(Cc3cc4c5c(cnn5c3)NC(=O)N4)CC2)c(C)n1 [Compound 64] | – | – | 17.5 | – | –
7 | CCN1C(=O)Nc2cc(CN3CCN(c4ccc(C(=O)NC)nc4Cl)CC3)cn3ncc1c23 [Compound 34] | – | – | 2.3 | – | –
8 | CNC(=O)c1ccc(N2CCN(Cc3cn4ncc5c4c(c3C)NC(=O)N5C3CC3)CC2)c(C)n1 [Compound 66] | 3.3 | 417.5 | 48.1 | 1380 | –
9 | CNC(=O)c1ccc(N2CCN(Cc3cc4c5c(cnn5[C@@H](C5CC5)C(=O)N4)c3)CC2)c(Cl)n1 [Compound 43-1] | 1.67 | 344.5 | 8.7 | 575 | –
10 | CC1C(=O)Nc2cc(CN3CCN(c4ccc(C#N)cn4)CC3)cc3cnn1c23 (centres unmarked) [Compound 35] | – | – | 213 | – | –
11 | CNC(=O)c1ccc(N2CCN(Cc3cc4c5c(c(C)nn5c3)N(C)C(=O)N4)CC2)c(C)n1 [Compound 57] | – | – | 1.3 | – | –
12 | CNC(=O)c1ccc(N2CCN(Cc3cc4c5c(cnn5c3)N(C3CCC3)C(=O)N4)[C@H](C)C2)c(C)n1 [Compound 79] | – | – | 21.8 | – | –
13 | CNC(=O)c1ccc(N2CCN(Cc3cc4c5c(cnn5c3)N(CC(C)O)C(=O)N4)CC2)c(C)n1 (centres unmarked) [Compound 67] | – | – | 392 | – | –
14 | CNC(=O)c1ccc(N2CCN(Cc3cc4c5c(cnn5c3)N(C(C)C)C(=O)N4)CC2)c(C)n1 [Compound 56] | 3.34 | 364.5 | 15 | 1220 | IC50 (PDE3A): 878 nM
15 | CNC(=O)c1ccc(N2CCN(Cc3cc4c5c(cnn5[C@H](C5CC5)C(=O)N4)c3)CC2)c(Cl)n1 [Compound 43-2] | 1.04 | 133.3 | 1.7 | 139 | –
16 | CNC(=O)c1ccc(N2CCN(Cc3cc4c5c(c3)ncn5[C@@H](C3CC3)C(=O)N4)CC2)c(Cl)n1 [Compound 47-1] | 0.68 | 1326 | 20.2 | 901 | IC50 (PDE3A): > 10000 nM
17 | CNC(=O)c1ccc(N2CCN(Cc3cc4c5c(cnn5c3)N(C3CCC3)C(=O)N4)[C@H](C)C2)c(Cl)n1 [Compound 80] | – | – | 18.7 | – | –
18 | CNC(=O)c1ccc(N2CCN(Cc3cc4c5c(c3)ncn5[C@@H](C3CC3)C(=O)N4)CC2)c(C)n1 [Compound 49-1] | 0.71 | 1852 | 20.4 | 1310 | –
19 | CNC(=O)c1ccc(N2CCN(Cc3cc4c5c(cnn5c3)N(C3CCC3)C(=O)N4)CC2)c(Cl)n1 [Compound 73] | – | – | 3.2 | – | –
20 | CNC(=O)c1ccc(N2CCN(Cc3cc4c5c(cnn5C5(CC5)C(=O)N4)c3)CC2)c(C)n1 [Compound 39] | – | – | < 1.52 | – | –
21 | CNC(=O)c1ccc(N2CCN(Cc3cc4c5c(cnn5c3)N(CC3CCC3)C(=O)N4)CC2)c(C)n1 [Compound 69] | – | – | 720 | – | –
22 | CNC(=O)c1ccc(N2CCN(Cc3cc4c5c(c(C(F)(F)F)nn5c3)N(C)C(=O)N4)CC2)c(C)n1 [Compound 58] | 0.99 | 206 | 1.2 | 204 | –
